Several values for one entry are separate records, joined by “and”; a condition that tells them apart may be missing. Identical values can stand only once.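 Cells were grown in 96-well plates and exposed to each compound for 48 hours at five concentrations; endpoints were interpolated linearly between bracketing concentrations, or set to the highest concentration if not reached. GI50: concentration for 50% inhibition of growth.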 Activity calls are given as the source filed them. No stated cut-off is given here; in the data, active = GI50 up to about 1.1 µM and inactive = higher.
Tests used:
Test in all cases: DTP human tumour cell line panel, 48 h
[1] = system: UO-31
[2] = system: SNB-19
[3] = system: NCI-H23
[4] = system: CAKI-1
[5] = system: MDA-N
[6] = system: SK-MEL-2
[7] = system: RXF 393
[8] = system: A498
[9] = system: SK-MEL-28
[10] = system: SF-295
[11] = system: UACC-62
[12] = system: MDA-MB-435
[13] = system: M14
[14] = system: HL-60
[15] = system: MCF7
[16] = system: SF-268
[17] = system: HOP-62
[18] = system: OVCAR-4
[19] = system: SR

SMILES	GI50 [1]	GI50 [2]	GI50 [3]	GI50 [4]	GI50 [5]	GI50 [6]	GI50 [7]	GI50 [8]	GI50 [9]	GI50 [10]	GI50 [11]	GI50 [12]	GI50 [13]	GI50 [14]	GI50 [15]	GI50 [16]	GI50 [17]	GI50 [18]	GI50 [19]
CCN(CC)CC(O)C1CCC(c2ccccc2)CC1 (stereo unspecified)	14.8 µM (inactive)	25.8 µM (inactive)	30.4 µM (inactive)	19 µM (inactive)	16.3 µM (inactive)	16.7 µM (inactive)	17.4 µM (inactive)	14.4 µM (inactive)	25.6 µM (inactive)	17.1 µM (inactive)	15.6 µM (inactive)	17.1 µM (inactive)	25.1 µM (inactive)	28.9 µM (inactive)	22.5 µM (inactive)	31.6 µM (inactive)	30.9 µM (inactive)		
CC(=O)O[C@H]1[C@@H](N2CCCCC2)C[C@H]2[C@@H]3CC=C4C[C@@H](N5CCCC5)CC[C@]4(C)[C@H]3CC[C@@]21C	> 100 µM (inactive)	> 100 µM (inactive)	> 100 µM (inactive)	> 100 µM (inactive)		> 100 µM (inactive)	32.7 µM (inactive)	> 100 µM (inactive)	22 µM (inactive)	67.5 µM (inactive)	> 100 µM (inactive)	28.6 µM (inactive)	19.2 µM (inactive)	24.9 µM (inactive)	> 100 µM (inactive)	> 100 µM (inactive)	49.8 µM (inactive)	> 100 µM (inactive)	2.74 µM (inactive)
Nc1nc(N)c2ncn(CC3CCC(CO)C3)c2n1 (stereo unspecified)	> 100 µM (inactive)	> 100 µM (inactive)		> 100 µM (inactive)	> 100 µM (inactive)	> 100 µM (inactive)	> 100 µM (inactive)	> 100 µM (inactive)	> 100 µM (inactive)	> 100 µM (inactive)	> 100 µM (inactive)	> 100 µM (inactive)	> 100 µM (inactive)		> 100 µM (inactive)	> 100 µM (inactive)	> 100 µM (inactive)	> 100 µM (inactive)	
CC(C)CC[C@H](O)[C@@H](C)[C@H]1[C@@H](OC2OC(C)C(O)C(O)C2O)C[C@H]2[C@@H]3CC=C4C[C@@H](O)CC[C@]4(C)[C@H]3[C@@H](O)C[C@]12C (stereo partly specified)	1.77 µM (inactive)	> 100 µM (inactive)	8.49 µM (inactive)	2.58 µM (inactive)		> 27 µM (inactive)	0.124 µM (active)	3.46 µM (inactive)	0.506 µM (active)	0.0402 µM (active)	0.538 µM (active)	1.55 µM (inactive)	1.55 µM (inactive)	0.098 µM (active)	0.656 µM (active)	1.58 µM (inactive)	0.301 µM (active)		0.143 µM (active)
CCOC(=O)C1CCCCN1C(=O)Cc1c[nH]c2ccccc12 (stereo unspecified)		> 100 µM (inactive)	80.2 µM (inactive)	69.7 µM (inactive)	49.8 µM (inactive)	61.9 µM (inactive)	76.9 µM (inactive)	33.9 µM (inactive)	> 100 µM (inactive)	66.2 µM (inactive)	45.4 µM (inactive)	34.4 µM (inactive)	63.4 µM (inactive)	31.3 µM (inactive)	37.5 µM (inactive)	45.2 µM (inactive)	87.9 µM (inactive)	33.9 µM (inactive)	
Nc1nc(Cl)c(N)c(NCC2(CO)CC(Cc3ccccc3)C2)n1 (stereo unspecified)	> 100 µM (inactive)	> 66.4 µM (inactive)	0.865 µM (active)	> 100 µM (inactive)	33.3 µM (inactive)	52.6 µM (inactive)	> 42.6 µM (inactive)		> 100 µM (inactive)	> 100 µM (inactive)	> 76.9 µM (inactive)	16.6 µM (inactive)	55.2 µM (inactive)	4.8 µM (inactive)	7.87 µM (inactive)	> 92.9 µM (inactive)	> 49.3 µM (inactive)	48.1 µM (inactive)	
Cc1cc(C)c(N)c(CO)c1	> 100 µM (inactive) and 97.1 µM (inactive)	> 100 µM (inactive)	> 100 µM (inactive)	4.25 µM (inactive) and 2.87 µM (inactive)	> 100 µM (inactive)	> 100 µM (inactive)			> 100 µM (inactive)	> 73.6 µM (inactive) and > 74.8 µM (inactive)	22.8 µM (inactive) and 13.2 µM (inactive)	> 100 µM (inactive)	> 100 µM (inactive)			> 100 µM (inactive)	38 µM (inactive) and > 53.5 µM (inactive)	78.9 µM (inactive) and 57.4 µM (inactive)	> 100 µM (inactive)
CCOC(=O)[C@@]12NN=N[C@@H]1[C@H]1CO[C@H](c3ccccc3)N1C2=O		10.2 µM (inactive)	12.5 µM (inactive)	11 µM (inactive)	11.1 µM (inactive)	7.21 µM (inactive)	3.58 µM (inactive)	10.6 µM (inactive)	5.25 µM (inactive)	11.6 µM (inactive)	7.6 µM (inactive)	11.1 µM (inactive)	6.18 µM (inactive)	17.3 µM (inactive)	6.34 µM (inactive)	11 µM (inactive)	14.5 µM (inactive)	16.5 µM (inactive)	
COc1ccccc1OCC(=N/NC(=O)c1ccncc1)/N=C/c1ccncc1		> 100 µM (inactive)	> 100 µM (inactive)	> 100 µM (inactive)	> 100 µM (inactive)	> 100 µM (inactive)	> 100 µM (inactive)	> 100 µM (inactive)	> 100 µM (inactive)	> 100 µM (inactive)	> 100 µM (inactive)	> 100 µM (inactive)	> 100 µM (inactive)	> 100 µM (inactive)	> 100 µM (inactive)	> 100 µM (inactive)	> 100 µM (inactive)	> 100 µM (inactive)	
CC1(C)CC2=C(SC3C=CC=CC3N2)C(=O)C1C(=O)C(N)=O (stereo unspecified)	54.5 µM (inactive)	> 100 µM (inactive)	> 100 µM (inactive)	> 100 µM (inactive)	> 100 µM (inactive)	> 100 µM (inactive)			> 100 µM (inactive)	> 100 µM (inactive)	> 100 µM (inactive)	> 100 µM (inactive)	> 100 µM (inactive)	44.1 µM (inactive)	> 100 µM (inactive)	> 100 µM (inactive)	> 100 µM (inactive)	> 100 µM (inactive)	
Cc1ccc(C(=O)/C=C/N2CCN(c3cccc(C(F)(F)F)c3)CC2)cc1	17.5 µM (inactive)	30.1 µM (inactive)	16.8 µM (inactive)	17.8 µM (inactive)		18.6 µM (inactive)	15.7 µM (inactive)	15.8 µM (inactive)	19.7 µM (inactive)	17.5 µM (inactive)	19.3 µM (inactive)	16.9 µM (inactive)	16.9 µM (inactive)	22.8 µM (inactive)	18 µM (inactive)	17.3 µM (inactive)	20.7 µM (inactive)	43.7 µM (inactive)	19.8 µM (inactive)
Nc1sccc1S(=O)(=O)c1ccsc1N	> 100 µM (inactive)	> 100 µM (inactive)	> 100 µM (inactive)	> 100 µM (inactive)	> 100 µM (inactive)	> 100 µM (inactive)		> 100 µM (inactive)	> 100 µM (inactive)	> 100 µM (inactive)	> 100 µM (inactive)	> 100 µM (inactive)	> 100 µM (inactive)		> 100 µM (inactive)	> 100 µM (inactive)	> 100 µM (inactive)	> 100 µM (inactive)	
